In assay [1] the target is thrombin-stimulated platelets (Homo sapiens, UniProt P05106+P08514). Briefly: Fibrinogen-Binding Assay (125I-fibrinogen binding to platelets). The conditions noted are these: for pIC50: 125I-fibrinogen 0.176 μmol/liter, thrombin-stimulated platelets, read-out: Inhibition of 125I-Fibrinogen Binding to Platelets IC50.
For assay [2], the target named is fixed activated platelets (Homo sapiens, UniProt P05106+P08514). Briefly: Platelet Aggregation Assay (fibrinogen-mediated aggregation of fixed-activated platelets). In kind it is cell-based. As to conditions: for pIC50: fixed activated platelets, human fibrinogen 250 μg/ml, read-out: Inhibition of Fibrinogen Mediated Platelet Aggregation IC50; for inhibition at 25 µM: read-out: Inhibition of Fibrinogen Mediated Platelet Aggregation % inhibition at 25 μM; for inhibition at 100 µM: read-out: Inhibition of Fibrinogen Mediated Platelet Aggregation % inhibition at 100 μM. In a few lines: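 Activated platelets fixed with 0.50% paraformaldehyde for 30 min at room temperature. They were then pre-incubated 1 min with test compound before aggregation was triggered by human fibrinogen at 250 μg/ml final. Aggregation recorded on an aggregometer.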

SMILES strings stand for the structures. pIC50: −log10 of the molar value. Non-standard residues stand in square brackets, D forms with d. Residues, ends and D or L forms follow the SMILES beside them. Sar = CNCC(=O)O

IC50 and inhibition data for 24 molecules are collected here from US5332726A, “Antithrombotic peptides and pseudopeptides” (Rhone-Poulenc Rorer Pharmaceuticals Inc., priority 1992, dated 1994).

The term pIC50 denotes the negative decadic logarithm of the IC50, by convention in mol/L.

Chain of fixed activated platelets (P08514 32-1039): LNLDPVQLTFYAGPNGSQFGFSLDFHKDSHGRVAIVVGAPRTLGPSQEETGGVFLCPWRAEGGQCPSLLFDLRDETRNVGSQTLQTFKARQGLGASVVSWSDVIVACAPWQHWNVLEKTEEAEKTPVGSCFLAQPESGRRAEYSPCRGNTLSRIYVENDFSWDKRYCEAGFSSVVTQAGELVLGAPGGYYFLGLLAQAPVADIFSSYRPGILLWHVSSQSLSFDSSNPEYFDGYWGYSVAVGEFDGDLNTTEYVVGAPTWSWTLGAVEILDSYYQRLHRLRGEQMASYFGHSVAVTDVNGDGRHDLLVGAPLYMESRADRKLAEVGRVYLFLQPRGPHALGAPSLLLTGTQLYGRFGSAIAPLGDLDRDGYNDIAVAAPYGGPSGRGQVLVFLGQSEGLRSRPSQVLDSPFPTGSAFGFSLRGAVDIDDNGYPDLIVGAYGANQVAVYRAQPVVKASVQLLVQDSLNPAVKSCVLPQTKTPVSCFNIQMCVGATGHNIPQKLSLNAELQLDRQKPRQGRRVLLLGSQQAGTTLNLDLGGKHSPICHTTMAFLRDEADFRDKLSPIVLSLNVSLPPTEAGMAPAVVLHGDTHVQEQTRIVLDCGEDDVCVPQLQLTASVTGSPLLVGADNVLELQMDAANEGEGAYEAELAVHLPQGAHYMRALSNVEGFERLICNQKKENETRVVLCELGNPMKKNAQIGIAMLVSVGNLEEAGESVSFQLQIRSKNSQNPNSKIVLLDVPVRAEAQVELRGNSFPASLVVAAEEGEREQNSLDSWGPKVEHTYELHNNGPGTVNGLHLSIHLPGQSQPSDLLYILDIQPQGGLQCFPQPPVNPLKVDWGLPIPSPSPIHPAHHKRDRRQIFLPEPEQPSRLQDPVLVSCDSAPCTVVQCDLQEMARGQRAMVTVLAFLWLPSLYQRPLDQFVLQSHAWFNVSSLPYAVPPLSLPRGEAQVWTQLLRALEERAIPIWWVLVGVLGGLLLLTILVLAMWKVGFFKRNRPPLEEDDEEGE
Chain of fixed activated platelets (P05106 27-788): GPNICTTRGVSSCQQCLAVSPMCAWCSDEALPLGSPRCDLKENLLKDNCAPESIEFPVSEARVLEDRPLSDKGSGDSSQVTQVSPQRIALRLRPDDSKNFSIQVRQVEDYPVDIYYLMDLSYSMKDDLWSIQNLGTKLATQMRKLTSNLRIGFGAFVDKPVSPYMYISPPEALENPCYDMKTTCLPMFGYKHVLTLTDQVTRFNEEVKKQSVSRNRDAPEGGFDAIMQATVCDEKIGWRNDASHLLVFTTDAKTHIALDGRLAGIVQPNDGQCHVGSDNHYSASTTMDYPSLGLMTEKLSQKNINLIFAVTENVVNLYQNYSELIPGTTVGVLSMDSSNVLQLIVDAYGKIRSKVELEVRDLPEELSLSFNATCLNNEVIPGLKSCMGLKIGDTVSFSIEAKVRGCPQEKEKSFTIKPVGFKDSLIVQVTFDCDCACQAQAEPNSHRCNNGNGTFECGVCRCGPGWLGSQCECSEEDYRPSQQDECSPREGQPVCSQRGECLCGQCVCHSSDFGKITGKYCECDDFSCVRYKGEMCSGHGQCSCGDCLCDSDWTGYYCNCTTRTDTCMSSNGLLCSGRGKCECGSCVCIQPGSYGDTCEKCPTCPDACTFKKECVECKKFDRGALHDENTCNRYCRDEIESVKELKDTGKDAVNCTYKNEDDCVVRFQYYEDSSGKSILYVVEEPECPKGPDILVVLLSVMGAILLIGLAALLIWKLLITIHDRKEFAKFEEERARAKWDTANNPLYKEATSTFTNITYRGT
Chain of thrombin-stimulated platelets (P08514 32-1039): as the sequence (P08514 32-1039) above
Chain of thrombin-stimulated platelets (P05106 27-788): as the sequence (P05106 27-788) above

With `CC(C)[C@H](NC(=O)[C@H](CC(=O)O)NC(=O)CN(C(=O)CCCCCNC(=N)N)C(C)C)C(=O)O` [6-Guanidinohexanoyl-N-(2-propyl)glycyl-L-aspartyl-L-valine], the pIC50 in assay [1] is 5.96. For the same molecule, in assay [2], the pIC50 is 5.07 and the inhibition at 25 µM stood at 83%.

As to `CCc1nccn1CCCCCC(=O)N(C)CC(=O)N[C@@H](CC(=O)O)C(=O)N[C@H](C(=O)O)C(C)C` [6-(2-Ethylimidazol-1-yl)hexanoyl-sarcosyl-L-aspartyl-L-valine], the pIC50 in assay [1] is 6.50. Further, in assay [2], the pIC50 was 5.31 and the inhibition at 25 µM was 89%.

As for `CC(C)[C@H](NC(=O)[C@H](CC(=O)O)NC(=O)CNC(=O)CCCCCn1ccnc1)C(=O)O` [6-(Imidazol-1-yl)-hexanoyl-glycyl-L-aspartyl L-valine], the pIC50 in assay [1] is 5.55. Also, in assay [2], the pIC50 was 4.77 and the inhibition at 25 µM was found to be 67%.

In the case of `CCN(CC(=O)N[C@@H](CC(=O)O)C(=O)N[C@@H](Cc1ccc(O)cc1)C(=O)O)C(=O)CCCCCNC(=N)N` [6-Guanidinohexanoyl-N-(ethyl)glycyl-L-aspartyl-L-tyrosine], in assay [1], the pIC50 is 6.74. Moreover, in assay [2], the pIC50 is 5.90 and the inhibition at 25 µM came to 95%.

On to `CC(C)CCOC(=O)[C@H](CCCNC(=N)N)NC(=O)[C@H](CC(=O)O)NC(=O)CCCCCCCCNC(=N)N` [9-Guanidinononanoyl-L-aspartyl-L-arginine-3-methylbutyl ester], for which the pIC50 in assay [1] is 6.82; in assay [2], 5.77. Moreover, in assay [2], the inhibition at 25 µM came out at 97%.

Turning to `CC[C@H](C)[C@H](NC(=O)[C@H](CCCNC(=N)N)NC(=O)[C@H](CC(=O)O)NC(=O)CCCCCCCCNC(=N)N)C(=O)O` [9-Guanidinononanoyl-L-aspartyl-arginyl-isoleucine], the results for the pIC50 in assay [1] and in assay [2] were 5.92 and 5.62, respectively. The inhibition at 25 µM in assay [2] stood at 93%.

`CC(C)[C@H](NC(=O)[C@H](CC(=O)O)NC(=O)CN(C)C(=O)[C@@H](N)CCCNC(=N)N)C(=O)O` [L-arginylsarcosyl-L-aspartyl-L-valine] (H-R[Sar]DV-OH): in assay [1], the pIC50 was 4.85. In addition, in assay [2], the pIC50 was 4.85 and the inhibition at 100 µM is 92%.

Consider `CCN(CC(=O)N[C@@H](CC(=O)O)C(=O)N[C@H](C(=O)O)C(C)C)C(=O)CCCCCCn1ccnc1` [7-(Imidazol-1-yl)heptanoyl-N-(ethyl)glycyl-L-aspartyl-L-valine], for which, in assay [1], the pIC50 was 5.89. In assay [2], the negative-log IC50 (pIC50) was 4.97 and the inhibition at 25 µM came to 82%.

As for `N=C(N)NCCCCCCCC(=O)N[C@@H](CC(=O)O)C(=O)N[C@@H](Cc1ccccc1)C(=O)O` [8-Guanidinooctanoyl-L-aspartyl-L-phenyl-alanine], the pIC50 in assay [1] was 6.70. Further, in assay [2], the pIC50 was 6.16 and the inhibition at 25 µM was determined as 96%.

Regarding `CC(C)[C@H](NC(=O)[C@H](CC(=O)O)NC(=O)CCCCCCCCN)C(=O)O` [9-aminononanoyl-L-aspartyl-L-valine], the pIC50 in assay [1] is 4.52. In addition, in assay [2], the pIC50 was 4.72 and the inhibition at 25 µM stood at 10.1%.

On to `CC(C)[C@H](NC(=O)[C@H](CC(=O)O)NC(=O)/C=C/CCCCCCNC(=N)N)C(=O)O` [9-Guanidinonon-2-(E)-enoyl-L-aspartyl-L-valine], for which the pIC50 in assay [1] is 6.37. For the same molecule, the inhibition at 25 µM in assay [2] amounted to 24%.

With `CC[C@H](C)[C@H](NC(=O)CCNC(=O)[C@H](CC(=O)O)NC(=O)CCCCCCCCNC(=N)N)C(=O)O` [9-Guanidinononanoyl-L-aspartyl-β-alanyl-L-isoleucine], the pIC50 in assay [1] is 4.27; in assay [2] it was 3.00. Moreover, the inhibition at 25 µM in assay [2] was 9%.

`N=C(N)NCCCCCCCCC(=O)N[C@@H](CC(=O)O)C(=O)N[C@@H](CCCNC(=N)N)C(=O)OC1CCCCC1` [9-Guanidinononanoyl-L-aspartyl-L-arginine-cyclohexylester]: the pIC50 in assay [1] was 6.59. In assay [2], the pIC50 is 6.09 and the inhibition at 25 µM is 91%.

In the case of `CCC(CCCCCCNC(=N)N)C(=O)NC(CC(=O)O)C(=O)N[C@H](C(=O)O)C(C)C` (mixture of isomers) [8-Guanidino-2-(R,S)-ethyl-octanoyl-L-aspartyl-L-valine], the pIC50 in assay [1] is less than 3.70. Also, the inhibition at 25 µM in assay [2] worked out at 30%.

For the molecule `CC(C)[C@H](NC(=O)[C@H](CC(=O)O)NC(=O)CN(C(=O)CCCCCNC(=N)N)C1CCCC1)C(=O)O` [6-Guanidinohexanoyl-N-cyclopentylglycine-L-aspartyl-L-valine], the pIC50 in assay [1] was 6.06. Also, in assay [2], the pIC50 is 5.24 and the inhibition at 25 µM turned out to be 76%.

In the case of `CC(C)[C@H](NC(=O)[C@H](CC(=O)O)NC(=O)CN(C)C(=O)CCCCn1ccnc1)C(=O)O` [5-(Imidazol-1-yl)-pentanoyl-sarcosyl-L-aspartyl-L-valine], the pIC50 in assay [1] was 6.82. In addition, in assay [2], the pIC50 is 5.82 and the inhibition at 25 µM was determined as 95%.

For the molecule `N=C(N)NCCCCCCCC(=O)N[C@@H](CC(=O)O)C(=O)N[C@@H](CCCCN)C(=O)O` [8-Guanidinooctanoyl-L-aspartyl-L-lysine], the pIC50 in assay [1] is 6.11. In addition, in assay [2], the pIC50 was 5.80 and the inhibition at 25 µM came to 93%.

As to `CC(C)[C@H](NC(=O)[C@H](C)NC(=O)CNC(=O)[C@@H](N)CCCNC(=N)N)C(=O)O` [L-arginylglycyl-L-alanyl-L-valine] (H-RGAV-OH), the inhibition at 50 µg/mL in assay [1] (read-out: Inhibition of 125I-Fibrinogen Binding to Platelets: Inhibited <50% at 50 μg/ml) is less than 50%. For the same molecule, in assay [2], the pIC50 was less than 4.00 and the inhibition at 100 µM is 17.5%.

With `N=C(N)NCCCCCCCCC(=O)N[C@@H](CC(=O)O)C(=O)NCC(=O)N[C@@H](CCCNC(=N)N)C(=O)O` [9-Guanidinononanoyl-L-aspartyl-glycyl-L-arginine], the values for the pIC50 in assay [1] and in assay [2] were 5.15 and 5.66, respectively. Besides, the inhibition at 25 µM in assay [2] is 85%.

For the molecule `CC(C)[C@H](NC(=O)[C@H](CC(=O)O)NC(=O)CN(C)C(=O)CCCCCCNC(=N)N)C(=O)O` [7-Guanidinoheptanoyl-L-sarcosyl-L-aspartyl-L-valine], the pIC50 in assay [1] was 5.29. Besides, in assay [2], the inhibition at 25 µM was determined as 14%.

In the case of `CC(C)C[C@@H](CCC(=O)O)NC(=O)[C@H](CC(=O)O)NC(=O)CCCCCCCCNC(=N)N` [N-(9-guanidinononanoyl-L-aspartyl)-(R)-4-amino-4-isobutylbutyric acid], the pIC50 in assay [1] was 4.27. In addition, in assay [2], the pIC50 is less than 4.60 and the inhibition at 25 µM is 13%.

Take `N=C(N)NCCCCCCCC(=O)N[C@@H](CC(=O)O)C(=O)N[C@@H](CCCNC(=N)N)C(=O)O` [8-Guanidinooctanoyl-L-aspartyl-arginine]: the pIC50 in assay [1] is 6.48. Further, in assay [2], the pIC50 was 5.66 and the inhibition at 25 µM was 94%.

Regarding `N=C(N)NCCCCCCCCC(=O)N[C@@H](CC(=O)O)C(=O)N[C@@H](Cc1ccccc1)C(=O)N[C@@H](CCCNC(=N)N)C(=O)O` [9-Guanidinononanoyl-L-aspartyl-L-phenylalanine-L-arginine], the results for the pIC50 in assay [1] and in assay [2] were 5.22 and 6.49, respectively. The inhibition at 25 µM in assay [2] amounted to 98%.

Turning to `CCC(C)COC(=O)[C@H](CCCNC(=N)N)NC(=O)[C@H](CC(=O)O)NC(=O)CCCCCCCCNC(=N)N` (stereo partly drawn) [9-Guanidinononanoyl-L-aspartyl-L-arginine-2-methyl-butylester], the negative logarithm of the IC50 (pIC50) in assay [1] was 6.92. Besides, in assay [2], the pIC50 was 6.14 and the inhibition at 25 µM stood at 97%.
